According to ChEMBL document CHEMBL1201862, “PubChem BioAssay data set” (2004):
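Assay format: 96-well plates, 48-hour exposure. GI50 = concentration required for 50% inhibition of growth.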 The source made the active and inactive calls. No stated cut-off is given here; in the data, active = GI50 up to about 1.1 µM and inactive = higher. Square brackets hold non-standard residues; d marks the D form. Peptide text beside a SMILES is read from it. * marks the point of attachment. Bn2Val = CC(C)[C@@H](C(=O)*)N(Cc1ccccc1)Cc1ccccc1; NH(3,4-diMeO-benzyl) = COc1ccc(CN*)cc1OC; NMeV = CN[C@H](C(=O)O)C(C)C; dNMeA = CN[C@H](C)C(=O)O

Legend:
Assay in all cases: DTP human tumour cell line panel, 48 h
[1] = test system: HL-60
[2] = test system: MDA-N
[3] = test system: DU-145
[4] = test system: BT-549
[5] = test system: EKVX
[6] = test system: UACC-257
[7] = test system: UO-31
[8] = test system: A498
[9] = test system: PC-3
[10] = test system: RPMI-8226
[11] = test system: HCT-116
[12] = test system: UACC-62
[13] = test system: OVCAR-4
[14] = test system: M14
[15] = test system: NCI-H522
[16] = test system: MOLT-4
[17] = test system: TK-10
[18] = test system: OVCAR-3
[19] = test system: SR
[20] = test system: SF-539

Measured: GI50

CC12CCC(C1)C(C)(C)C2OC(=O)c1ccccc1C(=O)O (configuration not stated)
inactive: [1] > 100 µM | [2] > 100 µM | [3] > 100 µM | [4] > 100 µM | [5] > 100 µM | [6] > 100 µM | [7] > 100 µM | [8] > 100 µM | [9] > 100 µM | [10] > 100 µM | [11] > 100 µM | [12] > 100 µM | [13] > 100 µM | [14] > 100 µM | [15] > 100 µM | [16] > 100 µM | [17] > 100 µM

COc1cc(/C=C2\N=C(c3ccccc3)N(c3nc4ccc(Sc5ccccc5)cc4[nH]3)C2=O)cc(OC)c1OC
inactive: [1] 14.7 µM | [2] 4.76 µM | [3] 21.8 µM | [4] 20.8 µM | [5] 38.7 µM | [6] 19.6 µM | [7] 34.4 µM | [8] 22 µM | [9] 26.9 µM | [10] 20.1 µM | [11] 20.7 µM | [18] 22.6 µM | [12] 15.4 µM | [13] 41.1 µM | [14] 19.3 µM | [15] 18.1 µM | [16] 26.8 µM | [17] 24.6 µM

O=S1(=O)OCCCOS(=O)(=O)C1(Br)Br
inactive: [1] > 100 µM | [2] > 100 µM | [3] > 100 µM | [4] > 100 µM | [5] > 100 µM | [6] > 100 µM | [7] > 100 µM | [9] > 100 µM | [10] > 100 µM | [19] > 100 µM | [11] > 100 µM | [18] > 100 µM | [12] > 100 µM | [13] > 100 µM | [14] > 100 µM | [15] > 100 µM | [16] > 100 µM | [17] > 100 µM

Cn1cnc2c(sc3nc4ccccc4n32)c1=N
inactive: [1] > 100 µM | [2] > 100 µM | [3] > 100 µM | [4] > 100 µM | [5] 52.2 µM | [6] > 100 µM | [7] > 100 µM | [8] > 100 µM | [9] > 100 µM | [10] > 100 µM | [11] > 100 µM | [18] > 100 µM | [12] > 100 µM | [13] > 100 µM | [14] > 100 µM | [20] > 100 µM | [16] > 100 µM | [17] > 100 µM

COc1ccc(OC)c(NCC(=O)Nn2cnc3ccc(S(=O)(=O)Nc4cc(OC)ccc4OC)cc3c2=O)c1
inactive: [1] 16.2 µM | [2] 41.3 µM | [3] > 100 µM | [4] > 100 µM | [5] > 100 µM | [6] 82.6 µM | [7] 75.7 µM | [9] 37.5 µM | [19] 25.4 µM | [11] 32.6 µM | [18] > 100 µM | [12] > 100 µM | [13] > 100 µM | [14] > 100 µM | [20] > 100 µM | [15] 40 µM | [16] 31.2 µM | [17] > 100 µM

COC(=O)[C@H](CNC(=O)/C=C/c1ccc(OC(C)=O)c(OC(C)=O)c1)NC(=O)/C=C/c1ccc(OC(C)=O)c(OC(C)=O)c1
inactive: [1] > 100 µM | [2] > 100 µM | [3] > 100 µM | [4] > 100 µM | [5] > 100 µM | [6] > 100 µM | [8] > 100 µM | [9] > 100 µM | [10] > 100 µM | [19] > 100 µM | [11] > 100 µM | [18] > 100 µM | [12] > 100 µM | [13] > 100 µM | [14] > 100 µM | [20] > 100 µM | [16] > 100 µM

COc1ccccc1C1(c2c(OC(C)C)c(=O)c2=O)SCCCS1
inactive: [1] > 100 µM | [2] > 100 µM | [3] > 100 µM | [4] 72.6 µM | [5] > 100 µM | [6] > 100 µM | [7] > 100 µM | [8] > 100 µM | [9] > 100 µM | [11] > 100 µM | [18] > 100 µM | [12] > 100 µM | [13] > 100 µM | [14] > 100 µM | [20] > 100 µM | [15] 65.9 µM | [16] > 100 µM | [17] > 100 µM

O=C1CC(NC(=O)C(F)(F)F)c2c(Br)sc(N3CCC(c4ccccc4)CC3)c21 (configuration not stated)
inactive: [1] 9.44 µM | [2] 78.9 µM | [3] 22.2 µM | [4] 27.7 µM | [5] 43.9 µM | [6] 13.4 µM | [7] 8.77 µM | [8] > 100 µM | [9] 25.6 µM | [11] 11.1 µM | [18] 6.25 µM | [12] 20.4 µM | [13] 11.5 µM | [14] > 100 µM | [20] 44.6 µM | [15] 7.94 µM | [16] 4.68 µM | [17] 19 µM

CCc1cc(O)c(Cl)c(C)c1Cl
inactive: [1] 33.7 µM | [2] 16.3 µM | [3] 16.7 µM | [4] 17.5 µM | [5] 11.9 µM | [6] 17.2 µM | [7] 19.1 µM | [8] 13 µM | [9] 19.5 µM | [10] 13.8 µM | [11] 16.1 µM | [18] 18.2 µM | [12] 15.1 µM | [13] 15.1 µM | [14] 18.6 µM | [20] 18.2 µM | [15] 11.7 µM | [17] 18.2 µM

COC(=O)C(CC(C)C)NC(=O)C(NC(=O)c1ccc(-c2ccc(Cl)cc2Cl)o1)C(C)C (configuration not stated)
inactive: [1] 6.56 µM | [2] 20.2 µM | [3] 21.8 µM | [4] 30 µM | [5] 13.7 µM | [6] 17.1 µM | [7] 29 µM | [9] 14.1 µM | [10] 11.6 µM | [19] 19.2 µM | [11] 12.3 µM | [18] 16.3 µM | [12] 13.1 µM | [13] 24.9 µM | [14] 24 µM | [20] 29.2 µM | [15] 23.2 µM | [16] 12.9 µM | [17] 27.4 µM

c1ccc(C2=NN=C3C(c4ccccc4)=Nc4ccccc4N3C2)cc1
inactive: [1] 3.56 µM | [2] 31.3 µM | [3] 7.94 µM | [4] 32.4 µM | [5] 23.6 µM | [6] 7.55 µM | [7] 7.43 µM | [8] > 80.2 µM | [9] 21.5 µM | [10] 9.42 µM | [11] 10.8 µM | [18] 3.37 µM | [12] 30.3 µM | [13] 4.58 µM | [14] 13.7 µM | [20] 39.5 µM | [15] 3.84 µM | [16] 3.87 µM | [17] 5.08 µM

CC(CNC(=O)c1ccccc1)(CNC(=O)c1ccccc1)[N+](=O)[O-]
inactive: [1] > 100 µM | [2] > 100 µM | [3] > 100 µM | [4] > 100 µM | [5] > 100 µM | [6] > 100 µM | [7] 23.8 µM | [9] > 100 µM | [10] > 100 µM | [19] > 100 µM | [11] > 100 µM | [12] > 100 µM | [14] > 100 µM | [20] > 100 µM | [15] 67.1 µM | [16] > 100 µM | [17] > 100 µM

CN1N=C(c2ccccc2)c2cc(Cl)ccc2N=C1N/N=C/c1ccc(N(C)C)cc1
inactive: [1] 39.6 µM | [2] > 100 µM | [3] > 100 µM | [4] > 100 µM | [5] > 100 µM | [6] > 100 µM | [7] > 100 µM | [9] 58.5 µM | [10] 70.5 µM | [19] 49.2 µM | [11] > 100 µM | [18] > 100 µM | [12] > 100 µM | [13] > 100 µM | [14] > 100 µM | [20] > 100 µM | [15] > 100 µM | [16] 62.7 µM | [17] > 100 µM

CC1=CCC(=O)[C@]2(C)C(CC(=O)O)[C@]3(C)C4=C(C)C(c5ccoc5)C[C@@H]4O[C@@H]3[C@H](O)[C@@H]12 (some centres not stated)
inactive: [1] > 100 µM | [2] > 100 µM | [3] > 100 µM | [4] > 100 µM | [5] > 100 µM | [6] > 100 µM | [7] > 100 µM | [8] > 100 µM | [9] > 100 µM | [10] > 100 µM | [11] > 100 µM | [18] > 100 µM | [12] > 100 µM | [13] > 100 µM | [14] > 100 µM | [20] > 100 µM | [15] > 100 µM | [16] > 100 µM | [17] > 100 µM

COc1ccc(CNC(=O)[C@@H](C)N(C)C(=O)[C@@H]2CCCN2C(=O)[C@H](C(C)C)N(C)C(=O)[C@@H](NC(=O)[C@H](C(C)C)N(Cc2ccccc2)Cc2ccccc2)C(C)C)cc1OC (Bn2Val-V[NMeV]P[dNMeA]-{NH(3,4-diMeO-benzyl)})
inactive: [1] 1.8 µM | [2] 9.06 µM | [3] 14 µM | [4] 7.69 µM | [5] 6.24 µM | [6] 7.43 µM | [7] > 100 µM | [8] 11.5 µM | [9] 3.61 µM | [10] 2.66 µM | [11] 6.76 µM | [18] 5.9 µM | [12] 7.01 µM | [13] 12.6 µM | [14] 6.92 µM | [20] 7.89 µM | [15] 3.19 µM | [16] 4.05 µM | [17] 11.7 µM
